Measured values reported in patent US12077527B2, “Compositions and methods for inhibiting ACSS2” (THE TRUSTEES OF THE UNIVERSITY OF PENNSYLVANIA, priority 2017, dated 2024).

What was measured:
[1] = test system: differentiated CAD neurons; assay: RNA-seq of differentiated CAD neurons treated with ACSS2i; assay type: cell-based, mouse
Protocol: (§1) CAD cells (Cath.-a-differentiated) were grown in Dulbecco's modified Eagle's medium (DMEM):Ham's F12 (1:1), supplemented with 2 mM glutamine, 1% penicillin/streptomycin, and 10% fetal bovine serum (FBS). To induce neuronal differentiation, sub-confluent CAD cell cultures (50-60%) were transferred to serum-free medium (DMEM:Ham's F12 (1:1) supplemented with 2 mM glutamine) and maintained in […] culture dishes for 5 days. […] For knockdown experiments, CAD cells were infected with lentiviral hairpin constructs (TRC collection) designed against ACL (#TRCN0000055217) or ACSS2 (#TRCN0000076124, #TRCN0000076125) in medium containing […] polybrene and 10% FBS for 24 hours. Cells then underwent selection in culture medium supplemented with 0.5 mg/mL puromycin for 5 days to obtain a stably infected population. Cell treatment with ACSS2i (1-(2,3-di(thiophen-2-yl)quinoxalin-6-yl)-3-(2-methoxyethyl)urea (DMSO)) was carried out for 24 hours at a final concentration of 20 μM (treatment with DMSO alone served as control).
To generate libraries for RNA-seq, poly(A)^+ RNA was extracted using the Dynabeads mRNA Direct kit (Ambion) according to the manufacturer's instructions. […] The quantity and quality of the libraries were assessed by BioAnalyzer (Agilent) and qPCR (Kapa Biosystems). The multiplexed libraries were pooled and sequenced on a single lane on the Illumina NextSeq 500 platform (50 bp, single-end reads). […] The aligned reads were mapped to genomic features using cufflinks-2.2.1, (-G parameter to quantify only known features), and iGenomes mml0 UCSC genomic transcript loci. The rRNA, […], and tRNA of the mouse genome were downloaded from the goldenPath UCSC FTP and were masked from the transcript quantification. After quantification, all data processing was done using python pandas library v.0.14.0. […] The statistical significance of the trend and reproducibility were assessed by taking the top 20% of genes by loss of expression in the knockdown and comparing the expression of these genes in inhibitor-treated cells to a random sample of genes outside this set (Mann-Whitney test).

[2] = test system: primary hippocampal neurons; assay: RNA-seq of acetate-treated primary hippocampal neurons with or without ACSS2i; assay type: cell-based, mouse
Protocol: All RNA-seq data were prepared for analysis as follows: NextSeq sequencing data was demultiplexed using native apps on BaseSpace. Demultiplexed FASTQs were aligned by RNA-STAR 2.5.2 to assembly mml0 (GRCm38). Aligned reads were mapped to genomic features using HTSeq 0.6.1. Quantification, library size adjustment, and differential gene expression analysis was done using DESeq2 and Wald's test (pairwise contrasts between acetate and DMSO-treatment in the inhibitor-treated or untreated cells, followed by a set overlap of differentially expressed genes). Gene list overlaps were tested for significance using the hypergeometric test.
Next, the functional relevance of alcohol-derived acetate for ACSS2-dependent histone acetylation in regulating hippocampal gene expression was examined (FIG. 23E, right). […] However, in line with the ChIP-seq data, this response was markedly blunted in ACSS2 KD mice. […] Because alcohol and acetate have pleiotropic effects on brain circuitry and metabolism, an in vitro assay was then developed to more closely model the direct effects of exogenous acetate on gene expression. […]

[3] = test system: primary hippocampal neurons; assay: Western blots of lysates from primary hippocampal neurons treated with ACSS2i; assay type: cell-based, mouse; conditions: day 7 neurons, ACSS2i 24 hours, western blot
Protocol: Cells were lysed in buffer containing 50 mM Tris pH 8.0, 0.5 mM EDTA, 150 mM NaCl, 1% NP40, 1% SDS, supplemented with protease inhibitor cocktail (Life Technologies, number 78446). For subcellular fractionation experiments, the cells were processed using the subcellular fractionation kit for cultured cells (Thermo Scientific, number 78840) according to the manufacturer's instructions. Protein concentration was determined by BCA protein assay (Life Technologies, number 23227), and equal amounts of protein were used in co-immunoprecipitation experiments or directly loaded onto polyacrylamide gels. The endogenous co-immunoprecipitation experiments were performed using antibody-conjugated protein A Dynabeads (Life Technologies) in buffer containing: 20 mM Tris, pH 8.0, 137 mM NaCl, 1 mM MgCl2, 1 mM CaCl2, 1% NP-40, 10% glycerol, with protease and phosphatase inhibitors, and 12.5 U/mL benzonase (Novagen, 70746). Proteins or co-immunoprecipitation eluates were loaded and separated on 4-12% Bis-Tris polyacrylamide gels (NuPAGE). After transfer to nitrocellulose membrane, 3% BSA in TBS supplemented with 0.1% Tween 20 (TBST) was used to block the membrane at room temperature for 1 hour. Primary antibodies were diluted in TBST, and incubated at 4° C. overnight. Primary antibodies are listed below. The membrane was washed three times with TBST, each for 10 min, followed by incubation with HRP-conjugated secondary antibodies at room temperature for 1 hour, in TBST. The membrane was washed again three times, and imaged with a Fujifilm LAS-4000 imager. Original gel blots are provided as FIGS. 14-16. […]

[4] = test system: differentiated CAD neurons; assay: Nuclear acetyl-CoA quantification (PicoProbe assay) in differentiated CAD neurons; assay type: cell-based, mouse; conditions: versus control, n=3
Protocol: as §1
To extract and quantify acetyl-CoA from differentiated CAD neurons, 4×10^6 cells were washed and incubated in lysis buffer for 30 min (10 mM Tris pH 8, 1 mM KCl, 1.5 mM MgCl2, 1 mM DTT). […] The PicoProbe assay was performed in 96-well clear-bottom plates, and the resulting fluorescence was quantified using the Synergy HTX Multi-Mode Microplate Reader (BioTek Instruments).

ACSS2 = target: T1, ACSS2 (Mus musculus, UniProt Q9QXG4); assay: Incorporation of alcohol-derived heavy acetyl groups into brain histone acetylation (Example 6); assay type: in vivo; conditions: mice treated with ACSS2 inhibitor
T1 construct: from tissue; host or cells: brain (hippocampus) of living mice
Protocol: To investigate the direct role of ACSS2 in alcohol-dependent acetylation in the brain, mice are treated with an ACSS2 inhibitor, ADG-204, ADG-205, ADG-206, or ADG-207. […] In contrast, in control mice, vHPC incorporation of the heavy label is not affected. Thus, acetate derived from hepatic alcohol metabolism is transported to the brain and readily incorporated into histone acetylation.

T1 sequence (Q9QXG4 whole entry): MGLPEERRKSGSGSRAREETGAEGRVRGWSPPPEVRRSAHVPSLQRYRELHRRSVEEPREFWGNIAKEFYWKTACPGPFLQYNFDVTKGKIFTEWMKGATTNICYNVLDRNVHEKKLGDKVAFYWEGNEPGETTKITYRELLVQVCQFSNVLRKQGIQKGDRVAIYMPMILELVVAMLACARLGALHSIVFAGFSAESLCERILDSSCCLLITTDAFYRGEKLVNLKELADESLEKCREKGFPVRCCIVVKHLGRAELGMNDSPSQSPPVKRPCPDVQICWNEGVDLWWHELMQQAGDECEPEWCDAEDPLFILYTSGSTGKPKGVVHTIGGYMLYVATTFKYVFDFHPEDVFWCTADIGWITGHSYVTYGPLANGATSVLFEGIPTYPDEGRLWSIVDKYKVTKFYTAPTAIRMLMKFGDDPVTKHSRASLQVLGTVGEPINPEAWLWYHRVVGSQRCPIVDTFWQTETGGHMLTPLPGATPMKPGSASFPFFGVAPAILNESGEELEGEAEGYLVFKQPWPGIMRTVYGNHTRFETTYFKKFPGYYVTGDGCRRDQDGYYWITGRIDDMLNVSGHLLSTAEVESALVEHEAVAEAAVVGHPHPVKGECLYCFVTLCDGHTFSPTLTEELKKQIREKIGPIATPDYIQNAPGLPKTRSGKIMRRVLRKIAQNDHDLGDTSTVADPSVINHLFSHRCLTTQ

COCCNC(=O)Nc1ccc2nc(-c3cccs3)c(-c3cccs3)nc2c1 [ACSS2i, 1-(2,3-di(thiophen-2-yl)quinoxalin-6-yl)-3-(2-methoxyethyl)urea]
expression of differentiation-induced genes (RNA-seq) ([1]; 24-hour ACSS2i 20 μM vs DMSO): a reduction in differentiation-induced genes
expression of ND genes (genes linked to neuronal differentiation, 1,315 genes) ([1]; ACSS2i-treated vs DMSO-treated CAD neurons): markedly reduced
genes that showed reduced expression upon ACSS2i treatment ([1]; RNA-seq, 24-hour ACSS2i 20 μM vs DMSO): 299 genes
regulation of acetate-induced genes by ACSS2i ([2]; in the absence of acetate): not regulated
acetate-induced genes that failed to become upregulated in the presence of ACSS2i ([2]; of 3613 acetate-induced genes, 10 mM acetate 24 hours): 2107 genes
ACSS2 levels [3]: without lowering ACSS2 levels
histone acetylation [3]: reduced
neuronal marker expression [3]: reduced
Nuclear acetyl-CoA levels, mean Δ [4]: −0.25±0.05

CCCCCNC(=O)Nc1ccc2nc(-c3cccs3)c(-c3cccs3)nc2c1 [ADG-204, 1-(2,3-di(thiophen-2-yl)quinoxalin-6-yl)-3-penlylurea]
incorporation of alcohol-derived heavy acetyl groups into histone acetylation (ACSS2): prevents the incorporation of alcohol-derived heavy acetyl groups into histone acetylation

COCCNC(=O)Nc1ccc2nc(-c3cccs3)c(-c3cccs3)nc2c1 [ADG-205, 1-(2,3-di(thiophen-2-yl)quinoxalin-6-yl)-3-(2-methoxyethyl)urea]
incorporation of alcohol-derived heavy acetyl groups into histone acetylation (ACSS2): prevents the incorporation of alcohol-derived heavy acetyl groups into histone acetylation

CNC(=O)Nc1ccc2nc(-c3cccs3)c(-c3cccs3)nc2c1 [ADG-206, 1-(2,3-di(thiophen-2-yl)quinoxalin-6-yl)-3-methylurea]
incorporation of alcohol-derived heavy acetyl groups into histone acetylation (ACSS2): prevents the incorporation of alcohol-derived heavy acetyl groups into histone acetylation

O=C(Nc1ccc2nc(-c3cccs3)c(-c3cccs3)nc2c1)NC12CC3CC(CC(C3)C1)C2 [ADG-207, 1-((1S,3s)-adamantan-1-yl)-3-(2,3-di(thiophen-2-yl)quinoxalin-6-yl)urea]
incorporation of alcohol-derived heavy acetyl groups into histone acetylation (ACSS2): prevents the incorporation of alcohol-derived heavy acetyl groups into histone acetylation
